Results as given in US8105979B2, “Active ingredient combinations with insecticidal and acaricidal properties” (Bayer CropScience AG, priority 2006, dated 2012).

Legend:
[1] = system: Phaedon cochleariae larvae; experiment: Phaedon cochleariae larvae test (cabbage leaf dip); details: single active compound
Myzus persicae = Myzus persicae test (cabbage leaf dip); assay type: in vivo; details: single active compound

## CN(Cc1ccc(Cl)nc1)C1=CC(=O)OC1 [compound (Ia)]
[1]; 20 ppm
  Kill in % after 6d: 5%
[1]; 100 ppm
  Kill in % after 4d: 68%
Myzus persicae; 0.8 ppm
  Kill in % after 1d: 70%

## O=C1C=C(N(Cc2ccc(Cl)nc2)C2CC2)CO1 [compound (Ib)]
Myzus persicae; 0.8 ppm
  Kill in % after 1d: 10%
Myzus persicae; 4 ppm
  Kill in % after 1d: 75%

## Cc1cc(C)c(C2=C(OC(=O)CC(C)(C)C)C3(CCCC3)OC2=O)c(C)c1 [spiromesifen, reference compound]
[1]; 100 ppm
  Kill in % after 6d: 10%
Myzus persicae; 100 ppm
  Kill in % after 1d: 0%

## spirotetramate [reference compound]
[1]; 20 ppm
  Kill in % after 4d: 5%
Myzus persicae; 0.8 ppm
  Kill in % after 1d: 5%
